In brackets after ≈: the same amount, converted by molar mass.
What was measured:
[1] = test system: Liver microsome; test: Metabolic stability in human liver microsomes assessed as cytochrome-mediated metabolism after 30 mins by HPLC-MS/MS analysis; type: ADME; conditions: 0.5 h
[2] = target: PA/PB1 (Influenza A virus (A/Puerto Rico/8/1934(H1N1)), UniProt P03431+P03433)
[3] = Cytotoxicity against MDCK cells assessed as decrease in cell viability by MTT assay; type: cell-based, Canis lupus familiaris; conditions: dog
[4] = Cytotoxicity against human HEK293T cells assessed as decrease in cell viability by MTT assay; type: cell-based, HEK-293T
[5] = test system: Influenza A virus; type: functional, organism-based; conditions: A/Puerto Rico/8/1934(H1N1), MDCK, 48 h
[6] = test system: Influenza B virus; test: Antiviral activity against Influenza B virus B/Malaysia/2506/04 assessed as reduction in plaque formation after 48 hrs by plaque reduction assay; type: functional; conditions: B/Malaysia/2506/2004, 48 h
[7] = test system: Influenza B virus; test: Antiviral activity against Influenza B virus B/Lee/40 assessed as reduction in plaque formation after 48 hrs by plaque reduction assay; type: functional, organism-based; conditions: B/Lee/1940, 48 h
[8] = test system: Influenza B virus; test: Antiviral activity against Influenza B virus B/Bangladesh/333/07 assessed as reduction in plaque formation after 48 hrs by plaque reduction assay; type: functional, organism-based; conditions: B/Bangladesh/333/07, 48 h
[9] = Antiviral activity against Influenza A virus A/Wisconsin/67/05 (H3N2) assessed as reduction in plaque formation after 48 hrs by plaque reduction assay; type: functional, Influenza A virus (A/Wisconsin/67/2005(H3N2))
[10] = Antiviral activity against Influenza A virus A/Solomon Island/3/06 (H1N1) assessed as reduction in plaque formation after 48 hrs by plaque reduction assay; type: functional, Influenza A virus (A/Solomon Islands/3/2006(H1N1))
[11] = test system: Influenza A virus; type: functional, organism-based; conditions: A/Puerto Rico/8/1934(H1N1), MDCK, 48 h; remark: listed apart in the source
[12] = Permeability of the compound assessed as membrane drug retention after 18 hrs by PAMPA assay; type: physicochemical; design: concentration or dose not given beside the values
[13] = Permeability of the compound assessed as passive diffusion from donor compartment to acceptor compartment after 18 hrs by PAMPA assay; type: physicochemical; conditions: read-out: Peff
[14] = Equilibrium solubility of the compound in phosphate buffer at pH 7.4 after 1 hr; type: physicochemical

In the case of `CCCOc1ccc(C(=O)Nc2nc3nc(C)cc(-c4ccccc4)n3n2)cc1`, the Drug metabolism [1] is reported as “metabolite_notdetected”, the IC50 [2] is reported as greater than 200 µM and the CC50 [3] is reported as greater than 72 µM. The CC50 [4] was 95 µM and the EC50 [5] was greater than 100 µM.

For `CC1=CC(c2ccccc2)n2nc(NC(=O)c3ccc(Oc4ccccc4)cc3)nc2N1` (configuration not stated), the Drug metabolism [1] was “metabolite_notdetected”, the IC50 [2] was 156 µM and the CC50 [3] was greater than 180 µM. For the same compound, the CC50 [4] was 73 µM and the EC50 [5] was 59 µM.

For `Cc1cc(-c2ccccc2)n2nc(NC(=O)c3ccccc3)nc2n1`, the Drug metabolism [1] was “metabolite_notdetected”, the IC50 [2] was greater than 200 µM and the CC50 [3] was greater than 250 µM. It also gave a CC50 [4] greater than 250 µM and an EC50 [5] greater than 100 µM.

For `CC1=CC(c2ccccc2)n2nc(NC(=O)c3ccccc3)nc2N1` (configuration not stated), the Drug metabolism [1] was “metabolite_notdetected”, the IC50 [2] was 100 µM and the CC50 [3] was greater than 250 µM. It also gave a CC50 [4] greater than 250 µM and an EC50 [5] of 100 µM.

For `CC1=CC(c2ccccc2)n2nc(NC(=O)c3ccccc3F)nc2N1` (configuration not stated), the Drug metabolism [1] was “metabolite_notdetected”, the IC50 [2] was 185 µM and the CC50 [3] was greater than 250 µM. It also gave a CC50 [4] greater than 250 µM and an EC50 [5] greater than 100 µM.

`NC(=O)c1c(NC(=O)c2cnn3c(C(F)F)cc(-c4ccccc4)nc23)sc2c1CCC2` gave an IC50 [2] of 25.4 µM and a CC50 [4] greater than 1000 µM.

With `Cc1cc(-c2ccccc2)nc2nc(C(=O)Nc3sc4c(c3C(N)=O)CCCCC4)nn12` the EC50 [6] was 11 µM, the EC50 [7] was 5 µM and the Drug metabolism [1] was “metabolite_notdetected”. It also gave an IC50 [2] of 28 µM, an EC50 [8] of 12 µM and an EC50 [9] of 14 µM. The CC50 [3] was greater than 250 µM, the EC50 [10] was 16 µM and the CC50 [4] was greater than 250 µM. The EC50 [5] was 49 µM, the EC50 [11] was 8 µM and the Activity [12] was 99%.

With `CCc1oc2ccccc2c1C(=O)c1cc(Br)c(O)c(Br)c1` [BENZBROMARONE] the EC50 [5] was 39 µM.

With `CCOc1ccc(C(=O)Nc2nc3n(n2)C(c2ccccc2)C=C(C)N3)cc1` (configuration not stated) the Drug metabolism [1] was “metabolite_notdetected”, the IC50 [2] was 139 µM and the CC50 [3] was greater than 250 µM. For the same compound, the CC50 [4] was 237 µM and the EC50 [5] was 100 µM.

In the case of `Cc1cc(-c2ccccc2)n2nc(C(=O)Nc3ccccc3)nc2n1`, the Drug metabolism [1] is reported as “metabolite_notdetected”, the IC50 [2] is reported as 160 µM and the CC50 [3] is reported as greater than 250 µM. For the same compound, the CC50 [4] was 110 µM and the EC50 [5] was 42 µM.

`CCCOc1ccc(C(=O)Nc2nc3n(n2)C(c2ccccc2)C=C(C)N3)cc1` (configuration not stated) showed an EC50 [6] of 32 µM, an EC50 [7] of 51 µM and a Papp at 18 h [13] of 2.93 ×10⁻⁶ cm/s. For the same compound, the Drug metabolism [1] was “metabolite_notdetected”, the IC50 [2] was 40 µM and the EC50 [8] was 27 µM. The EC50 [9] was 37 µM, the CC50 [3] was greater than 230 µM and the EC50 [10] was 27 µM. For the same compound, the CC50 [4] was greater than 250 µM, the solubility thermodynamic at 1 h [14] was 13 µg/mL (≈ 33.4 µM) and the EC50 [5] was 47 µM. The EC50 [11] was 47 µM and the Activity [12] was 41%.

With `CCCOc1ccc(C(=O)Nc2nc3nc(-c4ccccc4)cc(C)n3n2)cc1` the Drug metabolism [1] was “metabolite_notdetected”, the IC50 [2] was 158 µM and the CC50 [3] was greater than 247 µM. It also gave a CC50 [4] of 52 µM and an EC50 [5] greater than 100 µM.

With `CCCCOc1ccc(C(=O)Nc2nc3n(n2)C(c2ccccc2)C=C(C)N3)cc1` (configuration not stated) the Drug metabolism [1] was “metabolite_notdetected”, the IC50 [2] was 37 µM and the CC50 [3] was greater than 196 µM. It also gave a CC50 [4] greater than 250 µM and an EC50 [5] of 100 µM.

With `COc1ccc(C(=O)Nc2nc3nc(-c4ccccc4)cc(C)n3n2)cc1` the Drug metabolism [1] was “metabolite_notdetected”, the IC50 [2] was 150 µM and the CC50 [3] was greater than 250 µM. For the same compound, the CC50 [4] was 109 µM and the EC50 [5] was greater than 100 µM.

In the case of `CSCC[C@H](N)C(=O)N[C@@H](CC(=O)O)C(=O)N[C@H](C(=O)N[C@@H](CC(N)=O)C(=O)N1CCC[C@H]1C(=O)N[C@H](C(=O)N[C@@H](CC(C)C)C(=O)N[C@@H](CC(C)C)C(=O)N[C@@H](Cc1ccccc1)C(=O)N[C@@H](CC(C)C)C(=O)N[C@@H](CCCCN)C(=O)N[C@H](C(=O)N1CCC[C@H]1C(=O)N[C@@H](C)C(=O)N[C@@H](CCC(N)=O)C(=O)O)C(C)C)[C@@H](C)O)C(C)C`, the CC50 [4] is reported as greater than 100 µM.

In the case of `CCCCc1ccc(C(=O)Nc2nc3n(n2)C(c2ccccc2)C=C(C)N3)cc1` (configuration not stated), the Drug metabolism [1] is reported as “metabolite_notdetected”, the IC50 [2] is reported as 48 µM and the CC50 [3] is reported as greater than 250 µM. For the same compound, the CC50 [4] was greater than 250 µM and the EC50 [5] was 100 µM.

`Cc1cc(-c2ccccc2)nc2nc(NC(=O)c3ccccc3)nn12` gave an EC50 [6] of 36 µM, an EC50 [7] of 25 µM and a Papp at 18 h [13] of 5.49 ×10⁻⁶ cm/s. The Drug metabolism [1] was “metabolite_notdetected”, the IC50 [2] was 26 µM and the EC50 [8] was 34 µM. It also gave an EC50 [9] of 24 µM, a CC50 [3] greater than 250 µM and an EC50 [10] of 27 µM. It also gave a CC50 [4] of 196 µM, a solubility thermodynamic at 1 h [14] of 13 µg/mL (≈ 39.5 µM) and an EC50 [5] of 25 µM. It also gave an EC50 [11] of 25 µM and an Activity [12] of 2%.

With `CC1=CC(c2ccccc2)n2nc(NC(=O)CCc3ccccc3)nc2N1` (configuration not stated) the Drug metabolism [1] was “metabolite_notdetected”, the IC50 [2] was 100 µM and the CC50 [3] was greater than 250 µM. It also gave a CC50 [4] of 223 µM and an EC50 [5] greater than 100 µM.

For `O=[N+]([O-])c1ccc(Oc2ccc(-n3cc(CO)nn3)cc2)c2nonc12`, the IC50 [2] was 35 µM, the CC50 [4] was 40 µM and the EC50 [5] was 1 µM.

Reference: ChEMBL document CHEMBL3576796, “A Broad Anti-influenza Hybrid Small Molecule That Potently Disrupts the Interaction of Polymerase Acidic Protein-Basic Protein 1 (PA-PB1) Subunits” (J Med Chem, 2015)
